Results taken from patent publication US8575310B2, “Bioactive pentapeptides from rice bran and use thereof” (Board of Trustees of the University of Arkansas, priority 2009, dated 2013).
No end group written: not given here.

What was measured:
Type in all cases: cell-based, human
colon cancer cells = settings: pH 7
Method: An RSM design with a 3-factorial model was designed to use combinations of pH, RH (relative humidity), temperature and degree of glycosylation to evaluate enhanced anti-cancer activity of a modified (glycosylated) peptide. Peptide-glucose mixture samples were prepared at the following conditions/combinations: RH 55, 65, & 75 at pHs 6, 7 and 8 maintained at 40, 50 and 60° C. temperatures and tested for growth inhibition activity on colon cancer cells. The degree of glycosylation increased with increasing time at varying RH, and achieved a maximum of ˜20% degree of glycosylation.
Optimization for Degree of Glycosylation: The bioactive pentapeptide (0.02 g) (SEQ ID NO: 1) and D-glucose (0.002 g) were dissolved in water to give a 10% (w/v) protein solution. The solution pH was adjusted to varying pHs based on RSM design (6, 7, 8) and stirred for 10 min, and freeze-dried. The freeze-dried mixture was placed on an aluminum plate, and incubated at 50° C. at varying relative humidity ([…], 65%, 75%) based on the RSM design illustrated below in Table 3.

[1] = test system: amyloid-induced neuroblastoma cells (IMR-32); assay: Protection against amyloid beta (1-42) toxicity in neuroblastoma cells, MTS assay; settings: compared to amyloid-induced cells not treated with peptides
Method: Evaluation of Anti-Alzheimer's Disease Activity: Human neuroblastoma cells (IMR-32-ATCC Number CCL-127) was used as model system to evaluate the protective role of rice bran peptide fractions against amyloid beta (1-42) (Cat. No. PP69, EMD Chemicals, Inc., San Diego, Calif.) dependent toxicity. Human neuroblastoma cells were grown in the presence of beta amyloid peptide with and without bran peptide fractions at different levels. Cell survival to the amyloid-induced neuroblastoma cells upon bran peptide treatments was examined by the MTS [(3-(4,5-dimethylthiazole-2-yl)-5-(3-carboxymethoxyphenyl)-2-(4-sulfophenyl)-2H-tetrazolium, inner salt] assay, and compared to the cytotoxicity observed with amyloid-induced neuroblastoma cells.
Neuroblastoma cells were treated with amyloid peptide followed by treatment with rice bran peptide fractions. Cytotoxicity to the amyloid-induced neuroblastoma cells was examined by the MTS assay.

Caco-2 cells = assay: Trypan blue dye exclusion assay, viability of Caco-2 cells; settings: 200 μM concentration
Method: Human Cancer Cell Cultures. Human colon epithelial cancer cell line Caco-2, liver epithelial cancer cell line HepG2 and breast epithelial cancer cell line HTB-26 were cultured separately at 37° C. in Dulbecco's Modified Eagles Medium (DMEM) in the presence of 10% fetal bovine serum, supplemented with 1 mM L-glutamine, sodium pyruvate, 1 mM sodium bicarbonate, and 50 μg/mL gentamycin. Human lung epithelial cancer cell line NCI-H1299 was cultured in RPMI-1640 medium supplemented with 10% fetal bovine serum. After cell growth reached 70%, cell viability was monitored by employing the trypan blue dye exclusion assay after peptide treatments. Briefly, the monolayer was allowed to grow for 2-3 days at 37° C. on 24-well flat-bottom plates. One hundred microliters (100 μL) of rice bran peptide fractions at 1 mg/mL protein content was added to the cultures. For positive control genistein at 200 and 400 μM in saline and for negative control saline alone was used. After 24-48 h of treatments, the medium was removed, and the cells were briefly dissociated with 0.1% trypsin and 0.53 mM ethylenediaminetetraacetic acid (EDTA) solution. Following this, 0.5% trypan blue dye mixed in growth medium was added to each well. Samples were then aspirated from each well and loaded onto chambers in a hemocytometer cell, and cell counts were taken. […]

Compound	cancer cell activity inhibition (colon cancer cells)	reduction in cytotoxicity of amyloid-induced neuroblastoma cells [1]	viable cells on Caco-2 cell line (Caco-2 cells)
EQRPR [bioactive pentapeptide, Glu-Gln-Arg-Pro-Arg]	~80%	~45%	–
O=c1c(-c2ccc(O)cc2)coc2cc(O)cc(O)c12 [Genistein]	–	–	20000 viable cells/mL
